Laboratory results: patent US9963452B2, “Methods, compounds, and compositions for inhibition of ROS” (AUGUSTA PHARMACEUTICALS INC., priority 2013, dated 2018)
pIC50: −log10 of the molar value.

Molecular target: ROS (Homo sapiens, UniProt P08922)
Test: In vitro ROS enzymatic reaction assay (HTRF, Cisbio)
Format: biochemical
Design: ROS or EGFR enzyme, 0.008 ng/ul
Settings: for inhibition at 5 µM / Kinase Inhib. 5 uM (%) / inhibition at 10 µM: ROS kinase; for inhibition at 5 µM / Kinase Inhib. 5 uM (%): compound at 5 uM; for inhibition at 5 µM: read-out: Kinase Inhib. 5 uM (%); for inhibition at 10 µM: compound at 10 uM, read-out: Kinase Inhib. 10 uM (%)
Procedure: The ROS enzymatic reactions were carried out with a high throughput screening platform for phosphor-detection of kinase activity. This platform based on homogeneous time resolved fluorescence (HTRF) technology from Cisbio Bioassays, Inc. (Cisbio). […] The reaction was allowed to proceed for 30 minutes at room temperature. An equal volume of detection buffer was then added to the reaction mix.

ROS, sequence (P08922 28-2347): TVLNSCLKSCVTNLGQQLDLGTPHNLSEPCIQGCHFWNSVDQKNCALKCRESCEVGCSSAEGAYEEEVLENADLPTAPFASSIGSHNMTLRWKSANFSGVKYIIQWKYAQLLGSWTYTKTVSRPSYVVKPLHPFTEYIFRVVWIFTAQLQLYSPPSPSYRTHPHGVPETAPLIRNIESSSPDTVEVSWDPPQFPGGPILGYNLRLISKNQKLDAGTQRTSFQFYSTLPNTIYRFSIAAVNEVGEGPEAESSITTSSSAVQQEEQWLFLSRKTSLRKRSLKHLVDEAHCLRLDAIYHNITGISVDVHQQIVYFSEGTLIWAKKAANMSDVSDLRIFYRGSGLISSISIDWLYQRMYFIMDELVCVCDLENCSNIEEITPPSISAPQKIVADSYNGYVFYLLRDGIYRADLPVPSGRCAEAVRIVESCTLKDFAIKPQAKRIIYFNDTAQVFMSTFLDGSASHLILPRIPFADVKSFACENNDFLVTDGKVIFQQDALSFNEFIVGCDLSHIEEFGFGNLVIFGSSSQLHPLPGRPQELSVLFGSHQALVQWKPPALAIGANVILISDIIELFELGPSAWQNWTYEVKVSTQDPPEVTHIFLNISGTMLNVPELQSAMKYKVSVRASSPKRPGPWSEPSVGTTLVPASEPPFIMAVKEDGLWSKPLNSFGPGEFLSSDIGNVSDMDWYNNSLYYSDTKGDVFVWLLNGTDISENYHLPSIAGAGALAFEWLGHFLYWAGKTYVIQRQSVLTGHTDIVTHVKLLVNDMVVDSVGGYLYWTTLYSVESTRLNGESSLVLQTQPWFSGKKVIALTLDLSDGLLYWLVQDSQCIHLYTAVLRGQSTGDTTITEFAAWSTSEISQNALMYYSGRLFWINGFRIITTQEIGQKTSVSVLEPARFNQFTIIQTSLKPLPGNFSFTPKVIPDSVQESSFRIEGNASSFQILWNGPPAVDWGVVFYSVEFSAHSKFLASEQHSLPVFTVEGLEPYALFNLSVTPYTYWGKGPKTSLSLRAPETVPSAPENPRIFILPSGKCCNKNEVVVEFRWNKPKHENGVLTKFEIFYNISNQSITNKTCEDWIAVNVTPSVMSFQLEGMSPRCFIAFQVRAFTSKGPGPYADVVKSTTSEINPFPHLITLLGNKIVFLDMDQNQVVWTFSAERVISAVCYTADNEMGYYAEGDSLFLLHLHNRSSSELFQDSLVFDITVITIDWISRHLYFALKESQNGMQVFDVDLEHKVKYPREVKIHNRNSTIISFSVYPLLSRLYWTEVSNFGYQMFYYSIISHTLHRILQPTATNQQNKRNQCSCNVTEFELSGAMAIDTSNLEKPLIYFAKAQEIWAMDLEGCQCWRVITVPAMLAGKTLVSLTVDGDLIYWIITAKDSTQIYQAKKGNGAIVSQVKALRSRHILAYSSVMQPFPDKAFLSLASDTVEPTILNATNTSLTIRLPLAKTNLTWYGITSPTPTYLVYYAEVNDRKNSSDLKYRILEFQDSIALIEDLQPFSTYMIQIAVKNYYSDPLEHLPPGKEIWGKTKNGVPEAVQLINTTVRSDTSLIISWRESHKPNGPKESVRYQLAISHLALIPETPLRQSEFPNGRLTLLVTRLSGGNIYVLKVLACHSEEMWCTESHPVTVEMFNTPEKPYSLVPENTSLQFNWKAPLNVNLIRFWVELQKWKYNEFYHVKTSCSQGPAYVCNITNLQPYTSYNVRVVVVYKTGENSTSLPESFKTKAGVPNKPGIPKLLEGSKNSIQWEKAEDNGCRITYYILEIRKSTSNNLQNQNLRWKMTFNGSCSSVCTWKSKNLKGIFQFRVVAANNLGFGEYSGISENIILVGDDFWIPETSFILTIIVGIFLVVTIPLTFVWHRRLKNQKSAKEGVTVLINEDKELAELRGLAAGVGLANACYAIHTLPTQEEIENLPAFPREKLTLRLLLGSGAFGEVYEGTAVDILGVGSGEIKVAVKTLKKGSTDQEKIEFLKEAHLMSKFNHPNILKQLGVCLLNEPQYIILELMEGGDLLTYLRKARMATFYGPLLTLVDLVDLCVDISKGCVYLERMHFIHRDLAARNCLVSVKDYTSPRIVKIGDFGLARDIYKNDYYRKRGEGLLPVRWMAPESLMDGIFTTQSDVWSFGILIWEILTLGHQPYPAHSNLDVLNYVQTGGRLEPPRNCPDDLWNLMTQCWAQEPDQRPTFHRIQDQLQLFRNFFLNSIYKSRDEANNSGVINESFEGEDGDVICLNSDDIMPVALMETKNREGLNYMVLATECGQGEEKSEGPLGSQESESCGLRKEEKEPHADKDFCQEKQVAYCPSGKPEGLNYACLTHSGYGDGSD

| inhibition at 5 µM [%] | Kinase Inhib. 5 uM (%) | pIC50 | inhibition at 10 µM [%] | Structure (SMILES) |
| --- | --- | --- | --- | --- |
| 26.6 | – | – | – | O=C(c1ccccc1)n1nc(-c2ccco2)nc1NCc1ccc(Cl)cc1 [drawing 295] |
| 85.1 | – | 6.32 | – | O=C(NCC(c1cccs1)S(=O)(=O)c1ccc(F)cc1)c1ccccc1 (stereo not drawn) [drawing 297] |
| 100 | – | 6.41 | – | O=C(c1cccc(Nc2nccc(Nc3ccc4ncsc4c3)n2)c1)N1CCCCC1 [drawing 301] |
| 20.9 | – | < 5.30 | – | CC(C)c1nc(Nc2ccc3ncsc3c2)nc(N2CCCC2)n1 [drawing 314] |
| 23.5 | – | < 5.30 | – | CC(C)c1nc(Nc2ccc3ncsc3c2)nc(N2CCOCC2)n1 [drawing 315] |
| 45.1 | – | < 5.30 | – | CC(C)c1nc(Nc2ccc(C(=O)NCc3ccccc3)cc2)nc(Nc2cccc(Cc3nc4ccccc4s3)c2)n1 [drawing 316] |
| 25.3 | – | < 5.30 | – | CC(C)c1nc(Nc2ccc(C(=O)NCC3CCCCC3)cc2)nc(Nc2cccc(Cc3nc4ccccc4s3)c2)n1 [drawing 317] |
| 58.6 | – | < 5.30 | – | CC(C)c1nc(Nc2ccc(C(=O)N3CCCCC3)cc2)nc(Nc2ccc3ncsc3c2)n1 [drawing 318] |
| 98.8 | – | 6.12 | – | CC(C)c1nc(Nc2ccc(C(=O)NC3CCCCC3)cc2)nc(Nc2ccc3ncsc3c2)n1 [drawing 319] |
| 92.5 | – | 5.73 | – | CC(C)c1nc(Nc2ccc(C(=O)N3CCCC3)cc2)nc(Nc2ccc3ncsc3c2)n1 [drawing 320] |
| 90.7 | – | 5.41 | – | CC(C)c1nc(Nc2ccc(C(=O)N3CCN(C)CC3)cc2)nc(Nc2ccc3ncsc3c2)n1 [drawing 321] |
| 97.4 | – | 5.43 | – | CC(C)c1nc(Nc2ccc(C(=O)NCc3ccccc3)cc2)nc(Nc2ccc3ncsc3c2)n1 [drawing 322] |
| 65.7 | – | 6.48 | – | CC(C)c1nc(Nc2ccc(C(=O)N3CCOCC3)cc2)nc(Nc2ccc3ncsc3c2)n1 [drawing 323] |
| 20.4 | – | < 5.30 | – | CC(C)c1nc(Nc2ccc(N)cc2)nc(Nc2cc(C3CC3)[nH]n2)n1 [drawing 324] |
| – | – | – | 27.5 | Cc1ccc(NC(=O)CCn2ccc3ccccc32)cc1 [drawing 335] |
| – | – | – | 24.5 | CCOC(=O)c1ccc(NC(=O)CCn2ccc3ccccc32)cc1 [drawing 336] |
| – | – | – | 29.5 | COc1ccc(NC(=O)CCn2ccc3ccccc32)cc1 [drawing 337] |

Second part, the compound before the results:

| Structure (SMILES) | inhibition at 5 µM [%] | Kinase Inhib. 5 uM (%) | pIC50 | inhibition at 10 µM [%] |
| --- | --- | --- | --- | --- |
| Nc1nc(Nc2ccc(C(=O)NCCc3ccncc3)cc2)cc(Nc2ccc3ncsc3c2)n1 [drawing 280] | 61.1 | – | – | – |
| O=C(NCCc1ccccc1)c1cccc(Nc2nccc(Nc3ccc4ncsc4c3)n2)c1 [drawing 281] | – | 94.23 | – | – |
| Cc1ccc(CNC(=O)c2cccc(Nc3nccc(Nc4ccc5ncsc5c4)n3)c2)o1 [drawing 282] | 99.1 | – | 6.71 | – |
| C[C@H](O)CN(C[C@H](C)O)C(=O)c1cccc(Nc2nccc(Nc3ccc4ncsc4c3)n2)c1 [drawing 283] | 101 | – | – | – |
| O=C(c1cccc(Nc2nccc(Nc3ccc4ncsc4c3)n2)c1)N1CCCCCC1 [drawing 284] | 100 | – | 6.35 | – |
| Cc1cccc(Nc2nccc(Nc3cccc(C(=O)NC4CCN(C)CC4)c3)n2)c1 [drawing 285] | 98.6 | – | 5.85 | – |
| O=C(NCc1ccc(F)cc1)c1cccc(Nc2nccc(Nc3ccc4ncsc4c3)n2)c1 [drawing 286] | 101 | – | 6.24 | – |
| CC(C)CN(CC(C)C)C(=O)c1cccc(Nc2nccc(Nc3ccc4ncsc4c3)n2)c1 [drawing 287] | 99.6 | – | 5.89 | – |
| Cc1cccc(Nc2nccc(Nc3cccc(C(=O)N(C)CCCN(C)C)c3)n2)c1 [drawing 288] | 98.6 | – | – | – |
| O=C(COc1ccccc1)NCC(c1cccs1)S(=O)(=O)c1ccc(Cl)cc1 (stereo not drawn) [drawing 290] | 83.8 | – | 5.75 | 102 |
| Cc1cccc(C(=O)n2nc(-c3ccco3)nc2NCc2ccccc2)c1 [drawing 294] | – | 25.09 | – | – |
